Reference: publication PMC10380188, “A Random Forest Model for Peptide Classification Based on Virtual Docking Data” (International Journal of Molecular Sciences, 2023)
No end group written: not given here.

molecular target: T1, amyloid β-protein 42 (Aβ-42) (Homo sapiens, UniProt P05067); assay: SPR affinity assay (Biacore X100), KD of peptides to Aβ-42; format: binding; details: Biacore X100, protein coupled to CM5 chip, HBS-EP buffer, six peptide concentrations, same value repeated on each docking-run line
T1 construct: amyloid β-protein 42 (Aβ-42, n = 79)
T1 sequence (P05067 672-713 limits assumed): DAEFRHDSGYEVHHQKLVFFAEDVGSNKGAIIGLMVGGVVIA
Experimental: (§1) Equilibrium dissociation constants (KD) between all 194 (115 + 79) peptides and their receptor proteins were determined by SPR using the Biacore X100 instrument. Proteins were coupled to the CM5 chip by the EDC/NHS(1-Ethyl-3-(3′-dimethylaminopropyl) carbodiimide/n-Hydroxysuccinimide) method (GE HealthCare, Chicago, IL, USA), followed by running HBS-EP (HEPES Buffered Saline–EDTA–Surfactant P20) buffer (GE HealthCare, USA) that flowed through the entire pipeline. The peptide was diluted in six different concentrations with HBS-EP buffer and flowed into the machine from low to high, and its resonance signal change was detected separately. In each cycle, the peptide solution flowed through the chip at a constant flow rate of 30 μL/min for 120 s, and the peptide reacted fully with the protein, followed by HBS-EP buffer flowing through the chip at the same rate for 120 s, and the peptide was partially dissociated from the protein. Finally, the peptides bound to the proteins were completely eluted off with 0.25% SDS solution for the next cycle until all peptides were detected. The KD between each peptide and protein was calculated and analyzed using Biacore X100 Evaluation Software (Version 2.1) to determine its affinity.

Molecule | Kd [µM]
YVRHGH [DPL_1069] | 37.1

molecular target: porcine epidemic diarrhea virus spike (PEDV S) protein (Porcine epidemic diarrhea virus, UniProt Q91AV1); assay: SPR affinity assay, KD of six-amino-acid peptides to PEDV S protein; format: binding; details: Receptor PEDV S; PEDV peptide dataset used for model performance validation; value repeated on each docking-pose line
Sequence (Q91AV1 26-1383): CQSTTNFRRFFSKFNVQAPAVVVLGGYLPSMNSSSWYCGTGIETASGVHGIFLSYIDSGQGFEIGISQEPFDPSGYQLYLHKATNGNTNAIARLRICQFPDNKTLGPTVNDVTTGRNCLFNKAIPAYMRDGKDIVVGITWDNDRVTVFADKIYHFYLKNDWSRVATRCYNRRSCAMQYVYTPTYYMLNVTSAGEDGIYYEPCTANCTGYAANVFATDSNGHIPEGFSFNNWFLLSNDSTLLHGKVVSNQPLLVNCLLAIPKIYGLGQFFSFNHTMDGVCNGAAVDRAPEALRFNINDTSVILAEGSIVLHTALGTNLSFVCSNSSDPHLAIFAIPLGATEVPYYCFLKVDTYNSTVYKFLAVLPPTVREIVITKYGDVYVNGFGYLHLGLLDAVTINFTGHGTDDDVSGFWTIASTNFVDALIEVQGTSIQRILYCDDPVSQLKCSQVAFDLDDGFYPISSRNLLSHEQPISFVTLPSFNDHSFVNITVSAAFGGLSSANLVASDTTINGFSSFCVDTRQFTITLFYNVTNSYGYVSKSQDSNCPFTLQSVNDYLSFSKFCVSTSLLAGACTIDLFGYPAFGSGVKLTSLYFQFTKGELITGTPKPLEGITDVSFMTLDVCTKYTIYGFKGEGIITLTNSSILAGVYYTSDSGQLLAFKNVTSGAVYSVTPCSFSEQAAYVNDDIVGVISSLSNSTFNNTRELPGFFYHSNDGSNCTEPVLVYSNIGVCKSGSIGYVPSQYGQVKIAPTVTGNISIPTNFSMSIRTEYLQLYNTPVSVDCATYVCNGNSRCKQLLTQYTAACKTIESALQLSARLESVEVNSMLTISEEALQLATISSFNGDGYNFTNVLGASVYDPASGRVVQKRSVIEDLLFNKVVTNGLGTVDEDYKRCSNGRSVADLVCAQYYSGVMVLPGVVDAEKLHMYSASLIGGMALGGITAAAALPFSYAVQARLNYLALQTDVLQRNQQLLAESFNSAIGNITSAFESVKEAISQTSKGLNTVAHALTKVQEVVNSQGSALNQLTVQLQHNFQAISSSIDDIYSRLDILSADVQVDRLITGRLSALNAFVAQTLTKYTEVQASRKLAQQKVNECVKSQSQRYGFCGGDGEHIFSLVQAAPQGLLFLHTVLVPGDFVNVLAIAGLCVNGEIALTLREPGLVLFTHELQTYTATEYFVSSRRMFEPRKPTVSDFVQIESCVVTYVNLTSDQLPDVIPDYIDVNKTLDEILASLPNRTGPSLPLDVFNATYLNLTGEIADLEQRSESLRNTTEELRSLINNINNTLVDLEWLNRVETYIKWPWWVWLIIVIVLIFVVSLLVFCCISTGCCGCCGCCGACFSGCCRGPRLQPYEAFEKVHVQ
Experimental: as §1
Following the methods described above, a totally new dataset was constructed to further verify the performance of the constructed model. […] Meanwhile, the PEDV peptides were synthesized and tested by SPR successively, and the obtained KD values were further used to define the class of each peptide based on the criteria described above. Finally, the new 6-amino-acid peptide dataset for PEDV S combining all scores of the important features and class information was built to further test the predictive correctness of the RF model (Supplementary Table S2).

Molecule | Kd [µM]
N=C(N)NCCC[C@H](NC(=O)[C@H](CCCCN)NC(=O)[C@H](CO)NC(=O)[C@H](CCCCN)NC(=O)[C@H](Cc1c[nH]c2ccccc12)NC(=O)[C@@H](N)Cc1ccccc1)C(=O)O [DPL_1031] | 2.16
FWKAKQ [DPL_1033] | 45.5
FWKEAK [DPL_1032] | 7.72
FWKISH [DPL_1030] | 28
FWKQNKCR [DPL_1034] | 24.2
FWKQNKFL [DPL_1035] | 15
WHFCQH [DPL_1038] | 0.16
WHFEYF [DPL_1043] | 43.7
WHFFKT [DPL_1039] | 25.7
WHFHWP [DPL_1045] | 176
WHFKYR [DPL_1041] | 0.0015
WHFMIY [DPL_1040] | 179
WHFNRP [DPL_1046] | 65.2
WHFQNQ [DPL_1037] | 3.23
WHFSKC [DPL_1036] | 3.22
WHFWIV [DPL_1042] | 15.2
WHFWWQ [DPL_1044] | 88.5

same assay, conditions: Receptor PEDV S; SPR; value repeated on each docking-pose line of the peptide

Molecule | Kd [µM]
KHQAHH [DPL_1060] | 0.0431
KHQWKY [DPL_1062] | 326
RKQHCK [DPL_1057] | 1.53
RKQHIS [DPL_1056] | 384
RKQHLL [DPL_1055] | 1
RKQYWQ [DPL_1058] | 728

same assay, conditions: SPR, peptide to PEDV S protein; value repeated on each docking-pose line of the peptide

Molecule | Kd [µM]
FWKCDV [DPL_1022] | 116
FWKFNE [DPL_1027] | 56.6
FWKHEK [DPL_1025] | 132
FWKHRI [DPL_1029] | 36
FWKLWS [DPL_1024] | 0.987
FWKWWW [DPL_1026] | 17.7
FWKYAW [DPL_1028] | 56.8
FWKYNT [DPL_1023] | 32.5

same assay, conditions: SPR, receptor PEDV S; value repeated on each of the 20 docking-pose lines per peptide

Molecule | Kd [µM]
FWKFWK [DPL_1018] | 25.4
FWKHDI [DPL_1017] | 56.2
FWKKED [DPL_1020] | 7.04
FWKPDQ [DPL_1019] | 16.7
FWKPKR [DPL_1021] | 39.5
FWKQNK [DPL_1013] | 1190
FWKSWH [DPL_1016] | 34.9
FWKWHW [DPL_1014] | 0.136
FWKYHE [DPL_1015] | 43.4

same assay, conditions: receptor PEDV S; PEDV peptide dataset for model performance validation; value repeated on each of the peptide's 20 lines

Molecule | Kd [µM]
KHQHFG [DPL_1063] | 9.99
KHQKRC [DPL_1067] | 0.139
KHQVHR [DPL_1064] | 9.82

same assay, conditions: receptor PEDV S; PEDV peptide dataset used for model performance validation; same value repeated on each line of a peptide

Molecule | Kd [µM]
RKQFDK [DPL_1051] | 0.00736
RKQGVK [DPL_1054] | 192
RKQICW [DPL_1053] | 21.8
RKQKDW [DPL_1049] | 0.35
RKQSHK [DPL_1052] | 44.5
RKQWPQ [DPL_1050] | 0.556
WHFGSK [DPL_1047] | 69.8
WHFMIK [DPL_1048] | 0.13
